Results published in ChEMBL document CHEMBL4017474, “A calcineurin antifungal strategy with analogs of FK506” (Bioorg Med Chem Lett, 2017).
Calls of active or inactive are those of the source. No cut-off for these calls is given here.

How the values were obtained:
Jurkat = test: Immunosuppressive activity in PMA/ionomycin stimulated human Jurkat T cells assessed as suppression of IL2 production pretreated for 15 to 30 mins followed by PMA/ionomycin addition measured after 18 to 20 hrs by ELISA; type: cell-based
PBMC [1] = test: Reversal of FK506-induced inhibition of cell proliferation in concanavalin A stimulated human PBMC at 1 uM measured after 72 hrs by CellTiter-Glo assay relative to control; type: functional; parameters: scale not given: the % may be the effect or the level left
[2] = Cmax in mouse at 10 mg/kg, po; type: ADME, organism-based; parameters: dose 10 mg/kg, route oral; settings: in vivo
[3] = Terminal half-life in mouse at 3 mg/kg, iv; type: ADME, organism-based; settings: in vivo, read-out: beta t1/2 (converted)
PBMC [4] = test: Antiproliferative activity against concanavalin A stimulated human PBMC at 1 to 2 ug/ml measured after 72 hrs by CellTiter-Glo assay; type: cell-based
[5] = target: T1, Peptidyl-prolyl cis-trans isomerase FKBP1A (Homo sapiens, UniProt P62942); test: Antagonist activity at human FKBP12 measured after 30 mins by fluorescein labelled SLF tracer based fluorescence polarization assay
[6] = Clearance in mouse at 3 mg/kg, iv; type: ADME, organism-based; settings: in vivo
Aspergillus fumigatus [7] = test: Antifungal activity against Aspergillus fumigatus assessed as spore germination at 12.5 ug/ml measured after 48 hrs in presence of FK506 by broth dilution method relative to control; type: functional
[8] = Volume of distribution at steady state in mouse at 3 mg/kg, iv; type: ADME, organism-based; settings: in vivo, read-out: Vdss
[9] = Tmax in mouse at 10 mg/kg, po; type: ADME, organism-based; settings: in vivo
[10] = target: T1, Peptidyl-prolyl cis-trans isomerase FKBP1A; test: (§1) Antagonist activity at recombinant human N-terminal His6-tagged FKBP12 expressed in Escherichia coli assessed as inhibition of FKBP12 binding to calcineurin at 5 uL using […] pretreated for 1 hr followed by substrate addition measured after 1 hr by biomol green dye based spectrophotometric method
[11] = AUClast in mouse at 10 mg/kg, po; type: ADME, organism-based; parameters: dose 10 mg/kg, time 0 - last, route oral; settings: in vivo
Vero 76 = test: Cytotoxicity against African green monkey Vero 76 cells; type: cell-based; settings: Chlorocebus sabaeus
Aspergillus fumigatus [12] = test: Permeability across Aspergillus fumigatus at 12.5 ug/ml relative to human PBMC; type: ADME
HepG2 = test: Cytotoxicity against human HepG2 cells; type: cell-based
[13] = AUClast in mouse at 3 mg/kg, iv; type: ADME, organism-based; parameters: dose 3 mg/kg, time 0 - last, route intravenous; settings: in vivo
Aspergillus fumigatus [14] = test: Antifungal activity against Aspergillus fumigatus up to 25 ug/ml measured after 48 hrs by broth dilution method; type: functional
[15] = Antagonist activity at Aspergillus fumigatus FKBP12 measured after 30 mins by fluorescein labelled SLF tracer based fluorescence polarization assay
[16] = target: T1, Peptidyl-prolyl cis-trans isomerase FKBP1A; test: as §1, with “of FK506 mediated” for “of”, “calcineurin” for “calcineurin at 5 uL”
PBMC [17] = test: Reversal of FK506-induced inhibition of cell proliferation in concanavalin A stimulated human PBMC at 0.1 uM measured after 72 hrs by CellTiter-Glo assay; type: functional, cell-based
Aspergillus fumigatus [18] = test: Antifungal activity against Aspergillus fumigatus assessed as spore germination at 6.25 to 25 ug/ml measured after 48 hrs in presence of FK506 by broth dilution method; type: functional

T1 sequence (P62942 whole entry): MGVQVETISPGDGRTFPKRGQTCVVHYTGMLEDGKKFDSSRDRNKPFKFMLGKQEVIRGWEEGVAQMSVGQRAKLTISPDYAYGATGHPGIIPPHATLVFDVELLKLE

| Compound | IC50 (Jurkat) | Activity (PBMC [1]) | Activity (PBMC [4]) | IC50 [5] | Activity (Aspergillus fumigatus [7]) | inhibition [10] | IC50 (Vero 76) | IC50 (HepG2) | Activity (Aspergillus fumigatus [14]) | IC50 [16] | also measured |
| --- | --- | --- | --- | --- | --- | --- | --- | --- | --- | --- | --- |
| CO[C@H]1C[C@@H](C)C/C(C)=C/[C@@H](CC(=O)N2CCCC2)C(=O)C[C@H](O)[C@@H](C)[C@@H](/C(C)=C/[C@@H]2CC[C@@H](OC(=O)N3CC(O)C3)[C@H](OC)C2)OC(=O)[C@@H]2CCCCN2C(=O)C(=O)[C@]2(O)O[C@H]1[C@@H](OC)C[C@H]2C | > 10 µM | 63% | Non-Toxic | 0.0226 µM | 22% | inactive | > 100 µM | > 100 µM | inactive | – | Cmax [2]: 814 ng/mL; half-life [3]: 81.6 min; clearance [6]: 16.1 mL/min/kg; Vd [8]: 1.35 L/kg; Tmax [9]: 30 min; AUC(0-t) [11]: 1860 ng·h/mL; permeability (Aspergillus fumigatus [12]): 75%; AUC(0-t) [13]: 2780 ng·h/mL |
| CO[C@H]1C[C@@H](C)C/C(C)=C/[C@@H](CCCC(=O)N(CCO)CCO)C(=O)C[C@H](O)[C@@H](C)[C@@H](/C(C)=C/[C@@H]2CC[C@@H](O)[C@H](OC)C2)OC(=O)[C@@H]2CCCCN2C(=O)C(=O)[C@]2(O)O[C@H]1[C@@H](OC)C[C@H]2C | > 10 µM | 36.2% | Non-Toxic | 0.0134 µM | 35.7% | inactive | > 100 µM | > 100 µM | inactive | 0.989 µM | IC50 [15]: 0.0225 µM |
| CO[C@H]1C[C@@H](C)C/C(C)=C/[C@@H](/C=C/CCCC(=O)N2CCNCC2)C(=O)C[C@H](O)[C@@H](C)[C@@H](/C(C)=C/[C@@H]2CC[C@@H](O)[C@H](OC)C2)OC(=O)[C@@H]2CCCCN2C(=O)C(=O)[C@]2(O)O[C@H]1[C@@H](OC)C[C@H]2C | > 10 µM | 27.5% | Non-Toxic | 0.0126 µM | 36.5% | inactive | > 100 µM | > 100 µM | inactive | 1.81 µM | – |
| CO[C@H]1C[C@@H](C)C/C(C)=C/[C@@H](CCCC(=O)N2CCN(C)CC2)C(=O)C[C@H](O)[C@@H](C)[C@@H](/C(C)=C/[C@@H]2CC[C@@H](OCCO)[C@H](OC)C2)OC(=O)[C@@H]2CCCCN2C(=O)C(=O)[C@]2(O)O[C@H]1[C@@H](OC)C[C@H]2C | > 10 µM | 67.8% | Non-Toxic | 0.0191 µM | 24 - 42% | inactive | > 100 µM | > 100 µM | inactive | – | Activity (PBMC [17]): inactive; Activity (Aspergillus fumigatus [18]): Active |
| CC[C@@H]1/C=C(\C)C[C@H](C)C[C@H](OC)[C@H]2O[C@@](O)(C(=O)C(=O)N3CCCC[C@H]3C(=O)O[C@H](/C(C)=C/[C@@H]3CC[C@@H](OC(=O)N4CCN(C)CC4)[C@H](OC)C3)[C@H](C)[C@@H](O)CC1=O)[C@H](C)C[C@@H]2OC | > 10 µM | 79.8% | Non-Toxic | 0.011 µM | 68% | inactive | > 100 µM | > 100 µM | inactive | 1.74 µM | – |
| CO[C@H]1C[C@@H](C)C/C(C)=C/[C@@H](CCCC(=O)N2CC(N3CCOCC3)C2)C(=O)C[C@H](O)[C@@H](C)[C@@H](/C(C)=C/[C@@H]2CC[C@@H](O)[C@H](OC)C2)OC(=O)[C@@H]2CCCCN2C(=O)C(=O)[C@]2(O)O[C@H]1[C@@H](OC)C[C@H]2C | > 10 µM | 49.3% | Non-Toxic | 0.00952 µM | 49.6% | inactive | > 100 µM | > 100 µM | inactive | 1.08 µM | IC50 [15]: 0.0128 µM |
| CO[C@H]1C[C@@H](C)C/C(C)=C/[C@@H](CCCC(=O)N2CCN(Cc3ccccn3)CC2)C(=O)C[C@H](O)[C@@H](C)[C@@H](/C(C)=C/[C@@H]2CC[C@@H](O)[C@H](OC)C2)OC(=O)[C@@H]2CCCCN2C(=O)C(=O)[C@]2(O)O[C@H]1[C@@H](OC)C[C@H]2C | > 10 µM | 88.3% | Non-Toxic | 0.0112 µM | 47.4% | inactive | > 100 µM | > 100 µM | inactive | 1.29 µM | – |
